The source of these data is US20240166598A1, “COMPOUNDS, COMPOSITIONS, AND METHODS OF USING THE SAME” (priority 2021, published 2024).

Series [1] concerns the target T1, SARS CoV-2 PLpro (Severe acute respiratory syndrome coronavirus 2 (2019-nCoV) (SARS-CoV-2), UniProt P0DTD1). The class given is biochemical. As to conditions: 20 μM.
For another series, the system named is Vero E6 cells. As to conditions: African green monkey.
The test system of series [2] is SARS-CoV-2, Isolate USA-WA1/2020. Nature of the series: microbe, parasite or virus in culture. As to conditions: for EC50: Severe acute respiratory syndrome coronavirus 2, Vero C1008, read-out: EC50 against infectious SARS-CoV-2 (plaque formation). The class given is cell-based.
The nature of series [3]: in vitro. Conditions: human, Caco-2.
The next series addresses human USP7 (Homo sapiens (Human), UniProt Q93009). Nature of the series: USP7 selectivity counter-assay (Ub-AMC). The class given is biochemical. Conditions: catalytic domain of human USP7; up to 30 μM for CPI-169. The method, then: Assay conditions were similar to the PLpro primary assay, with the following substitutions: USP7 assays contained 4 nM USP7 and 0.5 uM Ub-AMC (Boston Biochem); USP14 assays contained 1.7 uM USP14, 4 uM Ub-AMC, and the addition of 5% glycerol to Buffer B. PLpro activity with ISG15-AMC and Ub-AMC were assayed in a manner similar to the PLpro primary assay. PLpro and substrate concentrations were modified as follows: 80 nM PLpro was assayed with 0.5 uM Ub-AMC, and 4 nM PLpro was assayed with 0.5 uM ISG15-AMC.
Assay conditions were similar to the PLpro primary assay, with the following substitutions: USP7 assays contained 4 nM USP7 and 0.5 uM Ub-AMC (Boston Biochem); USP14 assays contained 1.7 uM USP14, 4 uM Ub-AMC, and the addition of 5% glycerol to Buffer B.PLpro activity with ISG15-AMC and Ub-AMC were assayed in a manner similar to the PLpro primary assay. PLpro and substrate concentrations were modified as follows: 80 nM PLpro was assayed with 0.5 uM Ub-AMC, and 4 nM PLpro was assayed with 0.5 μM ISG15-AMC.

The subject of the next series is SARS-CoV-2 USA/WA1/2020. Nature of the series: microbe, parasite or virus in culture. It counts as cell-based. As to conditions: for IC50: Severe acute respiratory syndrome coronavirus 2, 48 h, read-out: IC50 (viral RNA by RT-qPCR). A general note: In qPCR the cycle at which signal appears reflects the starting amount.
For series [4] the following is noted: for In vitro CIint / Scale-up CIint: human.
The test system of another series is A549-hACE2 cells. Nature of the series: Cytotoxicity in A549-hACE2 cells (CellTiter-Glo). Conditions: assay conditions. Background: ATP-based viability assays read luminescence as a measure of living cells.
A short description of series [5]: in vitro. As to conditions: human, microsomes.
Series [6] concerns the target T1, SARS CoV-2 PLpro. Nature of the series: biochemical. It counts as binding.

Sequence of human USP7 (Q93009 214-521 limits assumed): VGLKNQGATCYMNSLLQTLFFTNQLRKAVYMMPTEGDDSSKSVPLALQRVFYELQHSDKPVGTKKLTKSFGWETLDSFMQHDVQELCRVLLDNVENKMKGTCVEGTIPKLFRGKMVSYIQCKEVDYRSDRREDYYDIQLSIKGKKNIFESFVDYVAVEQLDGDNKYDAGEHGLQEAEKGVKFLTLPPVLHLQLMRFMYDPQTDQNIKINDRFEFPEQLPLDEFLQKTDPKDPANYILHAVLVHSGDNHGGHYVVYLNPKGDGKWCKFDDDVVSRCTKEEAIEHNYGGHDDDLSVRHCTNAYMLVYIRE

Consider `CC(C)c1cc(C(C)C)c(CC(=O)NS(=O)(=O)Oc2c(C(C)C)cccc2C(C)C)c(C(C)C)c1` [Avasimibe], for which the “result in the PLpro screen, in words” value on SARS CoV-2 PLpro [1] is “weak PLpro inhibitors”.
Consider `Cc1ccc(NC2CNC2)cc1C(=O)N[C@H](C)c1cccc(-c2ccc(CN[C@H]3CC[C@@H](O)C3)s2)c1` (single isomer, unassigned) [XR8-89], for which the “concentration at which no toxicity was observed” value in the series on Vero E6 cells was less than 50 µM. The “antiviral activity, in words” value in series [2] was “superior antiviral potency to GRL017”.
The term Papp A→B denotes how fast a substance crosses the layer from the apical side. One may read the Papp B→A as the apparent permeability from the basolateral to the apical side of a cell layer. A word on the EC50: it is the concentration that produces a half-maximal response. One may read the IC50 as the midpoint of a concentration-inhibition curve. In the case of `Cc1ccc(N)cc1C(=O)N[C@H](C)c1cccc2ccccc12` [GRL0617, reference compound], in “in vitro [3]”, the Papp A→B was 12.4 ×10⁻⁶ cm/s and the Papp B→A is 12.9 ×10⁻⁶ cm/s. In series [2], the EC50 is 21.7 ± 1.6 µM. On human USP7, the “inhibition of USP7-catalyzed Ub-AMC hydrolysis” value is recorded as “did not inhibit”. In addition, in the series with SARS-CoV-2 USA/WA1/2020, the IC50 is more than 20 µM.
The term half-life denotes how long it takes for the measured level to halve. For the molecule `Cc1ccc(NC2CNC2)cc1C(=O)N[C@H](C)c1cccc(-c2ccc(CNC3CCCC3)s2)c1` [XR8-23], in series [4], the “In vitro CIint” value is on record as 5.89 μL/min/mg protein and the “Scale-up CIint” value came out at 7.38 mL/min/kg. For the same molecule, the “concentration at which cytotoxicity was not observed” value in the series with A549-hACE2 cells is less than 10 µM. Also, the “concentration at which no toxicity was observed” value with Vero E6 cells was less than 50 µM. In the series “in vitro [3]”, the Papp A→B came out at 0.16 ×10⁻⁶ cm/s and the Papp B→A was found to be 1.56 ×10⁻⁶ cm/s. Moreover, in the series “in vitro [5]”, the half-life turned out to be 3.92 h.
`Cc1ccc(NC2CNC2)cc1C(=O)N[C@H](C)c1cccc(-c2cccs2)c1` (single isomer, unassigned) [ZN-3-80]: in series [4], the “In vitro CIint” value worked out at 5.64 μL/min/mg protein and the “Scale-up CIint” value amounted to 7.07 mL/min/kg. In [4] (microsomes), the “stability in human liver microsome stability assays, in words” value was “more stable than GRL0617”. For the same molecule, the Ave ka at SARS CoV-2 PLpro [6] (SPR association rate, average of replicates) stood at 351000 M⁻¹ s⁻¹. On SARS CoV-2 PLpro [6] (SPR association rate, replicate 1), this molecule showed a ka1 of 291000 M⁻¹ s⁻¹. Also, the ka2 on SARS CoV-2 PLpro [6] (SPR association rate, replicate 2) turned out to be 334000 M⁻¹ s⁻¹. Further, the ka3 on SARS CoV-2 PLpro [6] (SPR association rate, replicate 3) was 303000 M⁻¹ s⁻¹. Moreover, the ka4 at SARS CoV-2 PLpro [6] (SPR association rate, replicate 4) worked out at 477000 M⁻¹ s⁻¹. The same molecule registered an Ave kd at SARS CoV-2 PLpro [6] (SPR dissociation rate, average of replicates) of 0.327 s⁻¹. This molecule had a kd1 at SARS CoV-2 PLpro [6] (SPR dissociation rate, replicate 1) of 0.318 s⁻¹. On SARS CoV-2 PLpro [6] (SPR dissociation rate, replicate 2), this molecule displayed a kd2 of 0.369 s⁻¹. The molecule further yielded a kd3 on SARS CoV-2 PLpro [6] (SPR dissociation rate, replicate 3) of 0.290 s⁻¹. The kd4 on SARS CoV-2 PLpro [6] (SPR dissociation rate, replicate 4) was 0.332 s⁻¹. In “in vitro [5]”, this molecule showed a half-life of 4.1 h.
With `Cc1ccc(NC2CNC2)cc1C(=O)N[C@H](C)c1cccc(-c2ccc(CN3CCCC3)s2)c1` [XR8-24], in [4], the “In vitro CIint” value is 9.60 μL/min/mg protein and the “Scale-up CIint” value came to 12.04 mL/min/kg. The “concentration at which cytotoxicity was not observed” value with A549-hACE2 cells is less than 50 µM. The “concentration at which no toxicity was observed” value in the series with Vero E6 cells was less than 50 µM. In the series “in vitro [3]”, this molecule gave a Papp A→B of 0.14 ×10⁻⁶ cm/s and a Papp B→A of 3.06 ×10⁻⁶ cm/s. Further, the EC50 in series [2] was found to be 2.5 ± 1.9 µM. The same molecule showed a half-life in the series “in vitro [5]” of 2.41 h. Further, the “effect of treatment on viral RNA versus remdesivir (10 μM)” value in the series on SARS-CoV-2 USA/WA1/2020 (20 μM) is “not significantly different from that of remdesivir”. Moreover, the IC50 with SARS-CoV-2 USA/WA1/2020 was 1.2 ± 0.2 µM.
Turning to `CCS(=O)(=O)N1CCC([C@@H](C)n2c(C)c(C(=O)NCc3c(OC)cc(C)[nH]c3=O)c3ccccc32)CC1` [CPI-169], the “inhibition of USP7-catalyzed Ub-AMC hydrolysis” value against human USP7 is given as “not able to inhibit USP7 up to a concentration of 30 μM”.
For `CCOc1nc2cccc(C(=O)O)c2n1Cc1ccc(-c2ccccc2-c2nnn[nH]2)cc1` [candesartan], the “result in the PLpro screen, in words” value at SARS CoV-2 PLpro [1] is “weak PLpro inhibitors”.
